Measured values taken from US7740850B2, “PDGFRβ-specific antibodies” (ImClone, LLC, priority 2007, dated 2010).

Assays:
Format in all cases: binding
Conditions in all cases: ✓ / X, key not given
[1] = target: h5α (Homo sapiens, UniProt P16234); test: Epitope mapping
Experimental: (§1) Various chimeric constructs of PDGFRβ and PDGFRα were first made by domain swapping, starting from N-terminus to C-terminus with PDGFRβ domain(s) replacing PDGFRα domain(s). The PDGFRβ/α chimera were tested for the ability of 2C5 binding. Shorter versions of PDGFRβ, including D1D2, D2D3 and D1D2D3, were then made to confirm the 2C5 binding domains on PDGFRβ.

[2] = test system: β1-3; test: Epitope mapping, shorter version of PDGFRβ (D1D2D3)
Experimental: (§2) 2C5 binds to domain 1 (D1) and domain 2 (D2) of PDGFRβ. Various chimeric constructs of PDGFRβ and PDGFRα were first made by domain swapping, starting from N-terminus to C-terminus with PDGFRβ domain(s) replacing PDGFRα domain(s). The PDGFRβ/α chimera were tested for the ability of 2C5 binding. Shorter versions of PDGFRβ, including D1D2, D2D3 and D1D2D3, were then made to confirm the 2C5 binding domains on PDGFRβ.

[3] = test system: 2β3α; test: Epitope mapping, PDGFRβ/α chimera
Experimental: as §1

[4] = test system: 3β2α; test: Epitope mapping, PDGFRβ/α chimera
Experimental: as §2

[5] = test system: 4β1α; test: Epitope mapping, PDGFRβ/α chimera
Experimental: as §2

[6] = target: T1, m5β (Mus musculus, UniProt P05622); test: Epitope mapping
T1 sequence (P05622 32-531 limits assumed): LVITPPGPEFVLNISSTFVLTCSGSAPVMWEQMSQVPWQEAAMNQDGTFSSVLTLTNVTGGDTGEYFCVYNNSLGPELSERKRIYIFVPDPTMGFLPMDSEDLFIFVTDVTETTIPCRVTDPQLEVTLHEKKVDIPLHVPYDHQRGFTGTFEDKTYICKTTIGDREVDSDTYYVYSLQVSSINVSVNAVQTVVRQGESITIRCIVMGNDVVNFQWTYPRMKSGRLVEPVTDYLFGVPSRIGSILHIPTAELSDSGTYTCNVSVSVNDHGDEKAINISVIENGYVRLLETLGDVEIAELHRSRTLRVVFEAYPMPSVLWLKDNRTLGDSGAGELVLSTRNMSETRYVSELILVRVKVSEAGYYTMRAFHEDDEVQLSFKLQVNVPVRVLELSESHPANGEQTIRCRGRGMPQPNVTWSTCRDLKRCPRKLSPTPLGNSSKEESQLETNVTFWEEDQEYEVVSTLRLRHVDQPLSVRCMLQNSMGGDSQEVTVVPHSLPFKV
Experimental: as §2

Chain of h5α (P16234 24-528 limits assumed): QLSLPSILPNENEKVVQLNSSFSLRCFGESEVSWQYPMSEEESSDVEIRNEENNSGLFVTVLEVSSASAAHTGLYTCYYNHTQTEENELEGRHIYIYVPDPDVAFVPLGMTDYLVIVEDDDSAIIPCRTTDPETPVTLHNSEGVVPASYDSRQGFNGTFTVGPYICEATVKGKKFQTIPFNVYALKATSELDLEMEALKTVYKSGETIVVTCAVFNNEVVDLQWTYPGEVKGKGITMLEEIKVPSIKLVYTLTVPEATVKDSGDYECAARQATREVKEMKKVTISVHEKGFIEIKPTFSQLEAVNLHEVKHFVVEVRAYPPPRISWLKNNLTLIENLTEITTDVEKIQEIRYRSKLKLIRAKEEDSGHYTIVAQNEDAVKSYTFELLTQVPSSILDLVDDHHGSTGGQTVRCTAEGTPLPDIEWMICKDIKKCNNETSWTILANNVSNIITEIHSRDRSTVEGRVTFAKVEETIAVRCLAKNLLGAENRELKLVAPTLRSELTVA

PDGF-BB: platelet-derived growth factor dimer, ligand of PDGFRβ and PDGFRα [reference compound]
✓: binding to h5α [1] | binding to β1-3 [2] | binding to 2β3α [3] | binding to 3β2α [4] | binding to 4β1α [5] | binding to m5β [6]
